From patent publication US12678480B2, “Polypeptide applied to inhibition of intracellular lipid accumulation and synthesis method thereof” (NATIONAL CHENG KUNG UNIVERSITY, priority 2021, dated 2026)
Ends that are not written are not given here.

Tests used:
[1] = test system: human hepatocarcinoma cells (Huh7); assay: fluorescence staining of lipid droplets in hepatocytes treated with the polypeptide; format: cell-based; conditions: Huh7, 400 μM oleic acid, peptide 10 μM, 20 μM; FIG. 4
[2] = test system: human hepatocarcinoma cells (Huh7); conditions: Huh7, 400 μM oleic acid, peptide 10 μM, 20 μM; FIGS. 3A-3B

## MEPGGARLRLQRTEGLGGERERQPCGDGNTETHRAPDLVQWYGRKKRRQRRRK-OH [polypeptide]
[1]
  generation of intracellular lipid droplets (LD): can inhibit
[2]
  level of total cholesterol (TC) in hepatocytes: can reduce
  level of triglyceride (TG) in hepatocytes: can reduce
